This is an account of results in PubChem BioAssay AID2060912 (Molecular Pharmacology Branch, DTP, NCI, 2025).

In the test the test system is HUVEC/MSC spheroids viability. Nature of the test: Human HUVEC/MSC cell line growth inhibition [KRAS2].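 On viability, T/C: percent of DMSO vehicle control luminescence so 100% = untreated viability.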 The conditions noted are these: for viability, T/C: stronger effect = lower value. The text has this:
Multicellular complex tumor spheroid response to RAS pathway inhibitors in combination with a targeted agents in patient-derived cell lines with oncogenic KRAS variants from multiple cancer types
A high-throughput screen of multi-cell type tumor spheroids was designed to identify active combinations of targeted small molecules and KRAS pathway inhibitors. Complex spheroids include a stromal component modeled by human endothelial cells (HUVEC) and fibroblasts modeled by human mesenchymal stem cells (MSCs). The concentration ranges selected for each drug and investigational agent were based upon clinically achievable concentrations if the clinical Cmax of the agent was known. * [This particular assayID is a followup dataset requested by reviewers of the manuscript. It is a test of the HUVEC and MSC without the tumor cells, and was conducted using different drug plates and a different plate layout.]
Compounds. The drugs and investigational agents: BI-3406 (NSC825286), BAY-293 (NSC824723), batoprotafib (TNO155; NSC825523), sotorasib (AMG 510; NSC818433), MRTX1257 (NSC819558), elimusertib (BAY 1895344; NSC800525), molibresib (GSK525762; NSC774829), temuterkib (LY3214996; NSC803410), venetoclax (NSC766270), alisertib (NSC759677), olaparib (NSC753686), talazoparib (NSC767125), erdafitinib (NSC781556), ipatasertib (NSC767898), cabozantinib (NSC761068), nintedanib (NSC756659), abemaciclib (NSC768073), docetaxel (NSC628503), trametinib (NSC758246), and sapanisertib (NSC764658) were obtained from the National Cancer Institute (NCI) Developmental Therapeutics Program Chemical Repository. The FDA-approved anticancer drug set is available from the Developmental Therapeutics Program. […] The stock solutions were prepared in dimethyl sulfoxide (DMSO, Sigma-Aldrich, St. Louis, MO, cat. D2650) at 800-fold the tested concentration and stored at -70 degrees C prior to their use. All drugs and investigational agents were tested over a range starting from a high concentration at or near the clinical Cmax and decreasing in half-log increments. If the clinical Cmax for an agent had not been determined, the highest concentration tested was 10 microM.
Cell Culture. All cells were maintained in an incubator at 37 degrees C and 5% CO2 with 95% humidity. The PDC lines were cultured according to standard operating procedures established by the NCI PDMR (https://pdmr.cancer.gov/sops/default.htm). Briefly, all PDCs were thawed and cultured in Matrigel-coated flasks prepared with a working solution of 1X Ham's F-12 nutrient mix, without supplementation (Invitrogen, Waltham, MA, cat. 11765054), 100 U/mL penicillin-streptomycin (Invitrogen, cat. 15140122), and 2.5% Matrigel (Corning Inc., Corning, NY, cat. 354248) for the first three passages. All PDCs were cultured in complete DMEM/F-12 media containing advanced DMEM/F-12 (Invitrogen, cat. 12634028), 4.9% defined fetal bovine serum, heat inactivated (HyClone Laboratories Inc., Logan, UT, cat. SH30070.03HI), 389 ng/mL hydrocortisone (Sigma-Aldrich, cat. H4001), 9.7 ng/mL human EGF recombinant protein (Invitrogen, cat. PHG0313), 23.4 microg/mL adenine (Sigma-Aldrich, cat. A2786), 97.3 U/mL penicillin-streptomycin (Invitrogen, cat. 15140122), 1.9 mM L-glutamine (Invitrogen, cat. 25030081), and 9.7 microM Y-27632 dihydrochloride (Tocris Bioscience, Bristol, United Kingdom, cat. 1254). The PDCs were cultured in complete DMEM/F12 media without 9.7 microM Y-27632 dihydrochloride for at least two passages prior to the screen. The established cell line HOP-62 was cultured in RPMI 1640 medium, HEPES (Invitrogen, cat. 22400105) with 10% defined fetal bovine serum (HyClone Laboratories Inc., cat. SH30070.03) and 2 mM L-glutamine (Invitrogen, cat. 25030081). The pooled donor HUVEC were cultured in endothelial cell growth medium 2 (PromoCell, Heidelberg, Germany, cat. C-22011) and the hMSC were cultured in mesenchymal stem cell growth medium 2 (PromoCell, cat. C-28009). […]

Each structure is given as a SMILES string. Where only a bound is given, the exact number is not on record here.

For `CC(=O)Nc1cccc(-n2c(=O)n(C3CC3)c(=O)c3c(Nc4ccc(I)cc4F)n(C)c(=O)c(C)c32)c1` + CNCc1ccccc1-c1csc(C(C)Nc2nc(C)nc3cc(OC)c(OC)cc23)c1, the IC50 (in general, the concentration that gives 50% inhibition) is 12.5 nM (curve of first compound, second compound 0.0316 µM); 12.1 nM (curve of first compound, second compound 0.1 µM); 13.2 nM (curve of first compound, second compound 0.316 µM); 13.1 nM (curve of first compound, second compound 1 µM); 13.2 nM (curve of first compound, second compound 3.16 µM); under 0.0949 nM (curve of first compound, second compound 10 µM). Further, the viability, T/C (commonly the ratio of treated to control) is 101% (second compound 0.0316 µM, first compound 94.9 pM); 130% (second compound 0.0316 µM, first compound 0.0003 µM); 113% (second compound 0.0316 µM, first compound 0.000949 µM); 83.6% (second compound 0.0316 µM, first compound 0.003 µM); 66.7% (second compound 0.0316 µM, first compound 0.00949 µM); 9.37% (second compound 0.0316 µM, first compound 0.03 µM). The viability, T/C is, setting by setting: (second compound 0.1 µM, first compound 94.9 pM) 102%; (second compound 0.1 µM, first compound 0.0003 µM) 109%; (second compound 0.1 µM, first compound 0.000949 µM) 95.5%; (second compound 0.1 µM, first compound 0.003 µM) 75.7%; (second compound 0.1 µM, first compound 0.00949 µM) 67%; (second compound 0.1 µM, first compound 0.03 µM) 9.94%. Also, the viability, T/C runs as follows: (second compound 0.316 µM, first compound 94.9 pM) 93.6%; (second compound 0.316 µM, first compound 0.0003 µM) 99.6%; (second compound 0.316 µM, first compound 0.000949 µM) 101%; (second compound 0.316 µM, first compound 0.003 µM) 85.9%; (second compound 0.316 µM, first compound 0.00949 µM) 65.4%; (second compound 0.316 µM, first compound 0.03 µM) 13.4%. Moreover, the viability, T/C was 86.5% (second compound 1 µM, first compound 94.9 pM); 103% (second compound 1 µM, first compound 0.0003 µM); 92.2% (second compound 1 µM, first compound 0.000949 µM); 84.6% (second compound 1 µM, first compound 0.003 µM); 67.2% (second compound 1 µM, first compound 0.00949 µM); 7.22% (second compound 1 µM, first compound 0.03 µM). The viability, T/C is 84.5% (second compound 3.16 µM, first compound 94.9 pM); 132% (second compound 3.16 µM, first compound 0.0003 µM); 103% (second compound 3.16 µM, first compound 0.000949 µM); 103% (second compound 3.16 µM, first compound 0.003 µM); 70.2% (second compound 3.16 µM, first compound 0.00949 µM); 0.49% (second compound 3.16 µM, first compound 0.03 µM). Moreover, the viability, T/C is 0.38% (second compound 10 µM, first compound 94.9 pM); 0.41% (second compound 10 µM, first compound 0.0003 µM); 0.37% (second compound 10 µM, first compound 0.000949 µM); 0.33% (second compound 10 µM, first compound 0.003 µM); 0.36% (second compound 10 µM, first compound 0.00949 µM); 0.28% (second compound 10 µM, first compound 0.03 µM).

Consider `COc1cc(Nc2ncc3c(n2)-c2ccc(Cl)cc2C(c2c(F)cccc2OC)=NC3)ccc1C(=O)O`, for which the viability, T/C by setting is: (compound 0.1 µM) 90.3% [middle of 5 runs]; (compound 0.316 µM) 96% [middle of 5 runs]; (compound 1 µM) 94% [middle of 5 runs]; (compound 3.16 µM) 104% [middle of 5 runs]; (compound 10 µM) 61.2% [middle of 5 runs]. Further, for the setting “curve of compound”, the IC50 is over 10000 nM.
